Consider 21 compounds from US10214512B2, “Factor XIA inhibitors” (MERCK SHARP & DOHME CORP., priority 2015, dated 2019).

Test [1] addresses purified Human plasma Kallikrein (Homo sapiens (Human), UniProt P03952). In words: Kallikrein Assay. Format: biochemical. The note with it: purified Human plasma Kallikrein 0.5 nM; substrate Acetyl-K-P-R-AFC; 50 mM HEPES pH 7.4; Ki from IC50 by Cheng Prusoff. The protocol:
(§1) The effectiveness of a compound of the present invention as an inhibitor of Kallikrein can be determined using a relevant purified serine protease, and an appropriate synthetic substrate. The rate of hydrolysis of the chromogenic or fluorogenic substrate by the relevant serine protease was measured both in the absence and presence of compounds of the present invention. Assays were conducted at rt or at 37° C. […] A decrease in the rate of fluorescence change in the presence of inhibitor is indicative of enzyme inhibition. Such methods are known to one skilled in the art. The results of this assay are expressed as the inhibitory constant, Ki.
Kallikrein determinations were made in 50 mM HEPES buffer at pH 7.4 containing 150 mM NaCl, 5 mM CaCl2, and 0.1% PEG 8000 (polyethylene glycol; Fisher Scientific). Determinations were made using purified Human plasma Kallikrein at a final concentration of 0.5 nM (Enzyme Research Laboratories) and the synthetic substrate, Acetyl-K-P-R-AFC (Sigma # C6608) at a concentration of […].
Times required to achieve equilibration between enzyme and inhibitor were determined in control experiments. […] IC50 was determined by inflection point from a four parameter logistic curve fit. Ki was calculated using the Cheng Prusoff equation, Ki=IC50/(1+([S]/Km)).

Test [2] addresses purified human Factor XIa (Homo sapiens (Human), UniProt P03951). In words: Factor XIa Assay. The conditions noted are these: purified human Factor XIa 40 pM; substrate Z-Gly-Pro-Arg-AFC 100 μM; 50 mM HEPES pH 7.4; read-out: Human FXIa Ki. The format is biochemical. As to the method: as §1, with “Coagulation Factor XIa” for “Kallikrein”
Factor XIa determinations were made in 50 mM HEPES buffer at pH 7.4 containing 150 mM NaCl, 5 mM CaCl2, and 0.1% PEG 8000 (polyethylene glycol; JT Baker or Fisher Scientific). Determinations were made using purified human Factor XIa at a final concentration of 40 pM (Sekisui Diagnostics) and he synthetic substrate, Z-Gly-Pro-Arg-AFC, TFA salt (Sigma #C0980) at a concentration of 100 μM.
Times required to achieve equilibration between enzyme and inhibitor were determined in control experiments. Initial velocities of product formation in the absence (Vo) or presence of inhibitor (Vi) were measured. Assuming competitive inhibition, and that unity is negligible compared Km/[S], [I]/e, and [I]/e (where [S], [I], and e respectively represent the total concentrations, of substrate, inhibitor and enzyme), the equilibrium constant (Ki) for dissociation of the inhibitor from the enzyme can be obtained from the dependence of Vo/Vi on [I] shown in the following equation.

A value given as a limit tells only on which side of the number the result lay.

Chain of purified Human plasma Kallikrein (P03952 391-638): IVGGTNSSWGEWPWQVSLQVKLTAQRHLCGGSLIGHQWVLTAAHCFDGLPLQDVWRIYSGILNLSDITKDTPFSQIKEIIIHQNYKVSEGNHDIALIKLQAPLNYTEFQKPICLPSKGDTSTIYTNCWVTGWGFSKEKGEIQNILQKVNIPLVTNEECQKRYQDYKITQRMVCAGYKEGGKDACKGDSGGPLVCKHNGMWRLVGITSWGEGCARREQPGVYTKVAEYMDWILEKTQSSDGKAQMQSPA
Chain of purified Human plasma Kallikrein (P03952 20-390 partner): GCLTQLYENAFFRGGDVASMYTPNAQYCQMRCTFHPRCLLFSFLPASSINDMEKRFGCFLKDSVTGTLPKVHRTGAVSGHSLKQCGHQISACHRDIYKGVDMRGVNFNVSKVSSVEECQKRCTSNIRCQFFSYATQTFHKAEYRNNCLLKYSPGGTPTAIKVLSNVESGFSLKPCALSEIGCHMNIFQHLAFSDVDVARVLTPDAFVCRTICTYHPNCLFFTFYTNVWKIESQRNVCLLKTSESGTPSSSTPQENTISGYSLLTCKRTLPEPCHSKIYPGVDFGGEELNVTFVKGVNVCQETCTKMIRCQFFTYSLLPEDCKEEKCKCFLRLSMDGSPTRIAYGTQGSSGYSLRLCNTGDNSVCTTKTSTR
Chain of purified human Factor XIa (P03951 388-625): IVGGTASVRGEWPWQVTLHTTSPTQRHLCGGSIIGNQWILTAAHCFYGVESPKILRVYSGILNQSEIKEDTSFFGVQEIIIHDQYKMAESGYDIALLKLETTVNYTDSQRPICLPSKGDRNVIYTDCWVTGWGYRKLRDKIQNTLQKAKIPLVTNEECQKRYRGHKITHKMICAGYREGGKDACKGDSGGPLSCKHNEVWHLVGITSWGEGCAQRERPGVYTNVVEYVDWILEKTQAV
Chain of purified human Factor XIa (P03951 19-387 partner): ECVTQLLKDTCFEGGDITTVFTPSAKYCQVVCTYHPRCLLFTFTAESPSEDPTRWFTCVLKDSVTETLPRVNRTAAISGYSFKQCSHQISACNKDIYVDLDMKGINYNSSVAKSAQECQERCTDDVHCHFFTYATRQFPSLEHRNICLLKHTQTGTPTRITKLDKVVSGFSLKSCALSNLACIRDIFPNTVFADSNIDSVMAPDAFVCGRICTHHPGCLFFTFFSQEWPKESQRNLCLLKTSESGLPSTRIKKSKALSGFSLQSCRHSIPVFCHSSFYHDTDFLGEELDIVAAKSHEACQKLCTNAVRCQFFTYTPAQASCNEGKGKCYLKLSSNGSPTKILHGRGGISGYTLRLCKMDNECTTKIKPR

One may read the Ki as the equilibrium dissociation constant of an inhibitor or competing ligand from its target. Compound `COC(=O)Nc1ccc2c(c1)NC(=O)CCCCC(c1ccc(-c3cc(Cl)ccc3-n3cc(C(=O)O)nn3)cn1)c1cccc-2c1` (single isomer, unassigned) [Example 92-a, 1-(4-chloro-2-(6-(2^4-((methoxycarbonyl)amino)-4-oxo-3-aza-1(1,3),2(1,2) -dinenzenacyclononaphane-9-yl)pyridin-3-yl)phenyl)-1H-1,2,3-triazole-4-carboxylic acid] gave a Ki in test [1] of 0.026 µM.

With `COC(=O)Nc1ccc2c(c1)NC(=O)[C@@H](C)CCC[C@@H](c1ccc(-c3cc(F)ccc3OC(F)(F)F)c[n+]1[O-])c1nc-2c(C)[nH]1` (single isomer, unassigned) [Example 149-b], the affinity in test [1] corresponds to a Ki of 0.0537 µM.

The compound `COC(=O)Nc1ccc2c(c1)NC(=O)CC[C@@H](C)C[C@@H](c1ccc(-c3c(F)ccc(Cl)c3F)c[n+]1[O-])c1nc-2c(C)[nH]1` (single isomer, unassigned) [Example 151-c] displayed a Ki in test [1] of 0.029 µM.

Compound `COC(=O)Nc1ccc2c(c1)NC(=O)[C@@H](C)CCC[C@H](c1ccc(-c3cc(F)ccc3OC(F)(F)F)c[n+]1[O-])c1nc-2c(C)[nH]1` (single isomer, unassigned) [Example 149-c] yielded a Ki in test [1] of 0.00771 µM.

As to `COC(=O)Nc1cc(F)c2c(c1)NC(=O)C(C)CCCC(c1ccc(-c3c(F)ccc(Cl)c3F)c[n+]1[O-])c1cccc-2c1` (single isomer, unassigned) [Example 85-a, 5-(3-Chloro-2,6-difluorophenyl)-2-(2^6-fluoro-2^4-((methoxycarbonyl)amino)-5-methyl-4-oxo-3-aza-1(1,3),2(1,2)-dibenzenacyclononaphane-9-yl)pyridine 1-oxide], the Ki in test [2] is more than 0.875 µM.

In the case of `COC(=O)Nc1ccc2c(c1)NC(=O)CCCCC(c1ccc(-c3c(F)ccc(Cl)c3F)cn1)c1cccc-2c1` (stereo not drawn) [Example 12, methyl (9-(5-(3-chloro-2,6-difluorophenyl)pyridin-2-yl)-4-oxo-3-aza-1(1,3),2(1,2)-dibenzenacyclononaphane-2^4-yl)carbamate], the Ki in test [2] came to 0.593 µM.

For `O=C1CCCC[C@H](c2ccc(-c3c(F)ccc(Cl)c3F)c[n+]2[O-])c2cccc(c2)-c2ccc(NC(=O)OCCO)cc2N1` [Example 46, (S)-5-(3-chloro-2,6-difluorophenyl)-2-(2^4-(((2-hydroxyethoxy)carbonyl)amino)-4-oxo-3-aza-1(1,3),2(1,2) -dinenzenacyclononaphane-9-yl)pyridine 1-oxide], the Ki in test [2] worked out at 0.00024 µM.

In the case of `O=C1CCCC[C@@H](c2ccc(-c3cc(Cl)ccc3-n3cnnn3)cn2)c2cccc(c2)-c2cc(F)ccc2N1` [Example 1-b, (R)-9-(5-(5-Chloro-2-(1H-tetrazol-1-yl)phenyl)pyridin-2-yl)-2^5-fluoro-3-aza-1(1,3),2(1,2)-dibenzenacyclononaphan-4-one], the Ki in test [2] is 0.504 µM.

For the compound `CCc1[nH]c2nc1-c1ccc(NC(=O)OC)cc1NC(=O)CCCC[C@@H]2c1ccc(-c2c(-n3cc(C(F)(F)F)cn3)ccc(Cl)c2F)c[n+]1[O-]` (single isomer, unassigned) [Example 136], the Ki in test [2] was determined as 0.168 µM.

As for `O=C1CCCCC(c2ccc(-c3cc(Cl)ccc3-n3cnnn3)cn2)c2nc(c[nH]2)-c2cc(F)ccc2N1` (single isomer, unassigned) [Example 10-a, (Z)-9-(5-(5-chloro-2-(1H-tetrazol-1-yl)phenyl)pyridin-2-yl)-2^5-fluoro-1^1H -3-aza-1(4,2)-imidazola-2(1,2)-benzenacyclononaphan-4-one], the Ki in test [2] amounted to 0.0838 µM.

In the case of `COC(=O)Nc1ccc2c(c1)NC(=O)CCCC[C@H](c1ccc(-c3c(-n4cc(C(F)(F)F)cn4)ccc(Cl)c3F)c[n+]1[O-])c1nc-2c(C)[nH]1` (single isomer, unassigned) [Example 135], in test [2], the inhibitory constant (Ki) was found to be 0.198 µM.

In the case of `O=C(C1CCCCC(c2ccc(-c3cc(Cl)ccc3-n3cnnn3)c[n+]2[O-])c2cccc(c2)-c2cc(F)ccc2N1)N1CCCC1` (single isomer, unassigned) [Example 79-a, 5-(5-Chloro-2-(1H-tetrazol-1-yl)phenyl)-2-(2^5-fluoro-4-(pyrrolidine-1-carbonyl)-3-aza-1(1,3),2(1,2)-dibenzenacyclononaphane-9-yl)pyridine 1-oxide], the Ki in test [2] came out at 0.0478 µM.

Take `COC(=O)Nc1ccc2c(c1)NC(=O)CCCCC(c1ccc(-c3c(F)ccc(Cl)c3F)cn1)c1cc-2ncc1F` (stereo not drawn) [Example 58, methyl (9-(5-(3-chloro-2,6-difluorophenyl)pyridin-2-yl)-1^5-fluoro-4-oxo-3-aza-1(2,4)-pyridina-2(1,2)-benzenacyclononaphane-2^4-yl)carbamate]: the Ki in test [2] was 0.167 µM.

`O=C1CCCCC(c2ccc(-c3c(F)ccc(Cl)c3F)c[n+]2[O-])c2nc(c[nH]2)-c2cc(C(=O)O)ccc2N1` (single isomer, unassigned) [Example 106-a, (Z)-2-(2^5-carboxy-4-oxo-1^1H-3-aza-1(4,2)-imidazola-2(1,2) -benzenacyclononaphane-9-yl)-5-(3-chloro-2,6-difluorophenyl)pyridine 1-oxide]: the Ki in test [2] was 0.00254 µM.

Consider `C[C@H]1CCC[C@H](c2ccc(-c3cc(Cl)ccc3-n3cc(Cl)nn3)c[n+]2[O-])c2cccc(c2)-c2c(cnn2C(F)F)NC1=O` (single isomer, unassigned) [Example 166-c], for which, in test [2], the Ki came out at 0.0094 µM.

As to `COC(=O)Nc1ccc2c(c1)NC(=O)CCCC[C@H](c1ccc(-c3ccccc3-n3cc(C)cn3)c[n+]1[O-])c1nc-2c(C)[nH]1` (single isomer, unassigned) [Example 140], the Ki in test [2] came to 0.04 µM.

With `COC(=O)Nc1ccc2c(c1)NC(=O)CCCCC(c1ccc(-c3c(F)ccc(Cl)c3F)c[n+]1[O-])c1ccc(F)c-2n1` (stereo not drawn) [Example 74, 5-(3-chloro-2,6-difluorophenyl)-2-(1^3-fluoro-2^4-((methoxycarbonyl)amino)-4-oxo-3-aza-1(2,6)-pyridina-2(1,2)-benzenacyclononaphane-9-yl)pyridine 1-oxide], in test [2], the Ki came to 0.18 µM.

Turning to `COC(=O)Nc1ccc2c(c1)NC(=O)CCCCC(c1ccc(-c3c(F)ccc(Cl)c3F)cn1)c1cc-2ccn1` (stereo not drawn) [Example 62, methyl (9-(5-(3-chloro-2,6-difluorophenyl)pyridin-2-yl)-4-oxo-3-aza-1(4,2)-pyridina-2(1,2)-benzenacyclononaphane-2^4-yl)carbamate], the Ki in test [2] stood at 0.033 µM.

As for `O=C1CCCCC(c2ccc(-c3c(F)ccc(Cl)c3F)cn2)c2cccc(c2)-c2cc3c(O)cc(=O)[nH]c3cc2N1` (stereo not drawn) [Example 49, 3-(5-(3-chloro-2,6-difluorophenyl)pyridin-2-yl)-1^4-hydroxy-1^1,1^2-dihydro-9-aza-1 (6,7)-quinolina-2(1,3)-benzenacyclononaphane-1^2,8-dione], in test [2], the Ki stood at 0.0156 µM.

Take `COC(=O)Nc1ccc2c(c1)NC(=O)CCCCC(c1ccc(-c3c(F)ccc(Cl)c3F)cn1)c1cc-2c(F)cn1` (stereo not drawn) [Example 60, methyl (9-(5-(3-chloro-2,6-difluorophenyl)pyridin-2-yl)-1^5-fluoro-4-oxo-3-aza-1(4,2)-pyridina-2(1,2)-benzenacyclononaphane-2^4-yl)carbamate]: in test [2], the Ki came out at 0.342 µM.

With `O=C1CCCC[C@H](c2ccc(-c3c(F)ccc(Cl)c3F)c[n+]2[O-])c2cccc(c2)-c2c(cnn2C(F)F)N1` (single isomer, unassigned) [Example 171], in test [2], the Ki was more than 0.875 µM.
